Biological target: T1, Gonadotropin-releasing hormone receptor (Rattus norvegicus, UniProt P30969)
T1 sequence (P30969 whole entry): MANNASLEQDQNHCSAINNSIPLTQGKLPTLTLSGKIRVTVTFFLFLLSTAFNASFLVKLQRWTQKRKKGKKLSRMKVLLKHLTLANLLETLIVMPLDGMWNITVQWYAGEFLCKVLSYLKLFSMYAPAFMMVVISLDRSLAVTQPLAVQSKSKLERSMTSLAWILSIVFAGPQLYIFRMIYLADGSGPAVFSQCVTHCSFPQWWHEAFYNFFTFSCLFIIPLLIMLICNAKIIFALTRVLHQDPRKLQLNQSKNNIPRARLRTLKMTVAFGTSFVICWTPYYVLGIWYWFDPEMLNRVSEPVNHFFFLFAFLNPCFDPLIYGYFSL
Assay: Concentration of the peptide which displaces 50% of 125 I-[D-Lys6] gonadotropin-releasing hormone bound to rat pituitary membranes
Assay type: cell membranes, Membrane

| Structure (SMILES) | IC50 |
| --- | --- |
| CC(=O)N[C@H](Cc1ccc2ccccc2c1)C(=O)N[C@H](Cc1ccc(Cl)cc1)C(=O)N[C@H](Cc1ccccn1)C(=O)N[C@H](C)C(=O)N[C@@H](CCCNC(N)=O)C(=O)N1CCC[C@H]1C(=O)N[C@H](C)C(N)=O | 23 nM |
| CC(=O)N[C@H](Cc1ccc2ccccc2c1)C(=O)N[C@H](Cc1ccc(Cl)cc1)C(=O)N[C@H](Cc1ccccn1)C(=O)N[C@H](C)C(=O)N[C@@H](CCCCNC(C)C)C(=O)N1CCC[C@H]1C(=O)N[C@H](C)C(N)=O | 130 nM |
| CC(=O)N[C@H](Cc1ccc2ccccc2c1)C(=O)N[C@H](Cc1ccc(Cl)cc1)C(=O)N[C@H](Cc1ccccn1)C(=O)NCC(=O)N[C@@H](CCCN=C(N)N)C(=O)N1CCC[C@H]1C(=O)N[C@H](C)C(N)=O | 7 nM |
| CC(=O)N[C@H](Cc1ccc2ccccc2c1)C(=O)N[C@H](Cc1ccc(Cl)cc1)C(=O)N[C@H](Cc1ccccn1)C(=O)NC1(C(=O)N[C@@H](CCCN=C(N)N)C(=O)N2CCC[C@H]2C(=O)N[C@H](C)C(N)=O)CCC1 | 42 nM |
| C[C@@H](NC(=O)[C@@H]1CCCN1C(=O)[C@H](CCCN=C(N)N)NC(=O)CNC(=O)[C@@H](Cc1ccccc1)NC(=O)[C@@H](Cc1ccccc1)NC(=O)[C@H](N)Cc1ccc2ccccc2c1)C(N)=O | 280 nM |
| CC(=O)N[C@H](Cc1ccc2ccccc2c1)C(=O)N[C@H](Cc1ccc(Cl)cc1)C(=O)N[C@H](Cc1ccccn1)C(=O)NCC(=O)N1CCC[C@H]1C(=O)N[C@H](C)C(N)=O | 45 nM |
| C[C@@H](NC(=O)[C@@H]1CCCN1C(=O)[C@H](CCCNC(=N)N)NC(=O)CNC(=O)[C@@H](Cc1ccccc1)NC(=O)[C@@H](Cc1ccccc1)NC(=O)[C@@H](Cc1ccc2ccccc2c1)NC(=O)OCC1c2ccccc2-c2ccccc21)C(N)=O | 2200 nM |
| CC(=O)N[C@H](Cc1c[nH]c2ccccc12)C(=O)N[C@H](Cc1ccccc1)C(=O)N[C@H](Cc1ccccc1)C(=O)NCC(=O)N[C@@H](CCCN=C(N)N)C(=O)N1CCC[C@H]1C(=O)N[C@H](C)C(N)=O | 450 nM |
| CC(=O)N[C@H](Cc1ccc2ccccc2c1)C(=O)N[C@H](Cc1ccc(Cl)cc1)C(=O)N[C@H](Cc1ccccn1)C(=O)N[C@H](CCCNC(=N)N)C(=O)N1CCC[C@H]1C(=O)N[C@H](C)C(N)=O | 70 nM |
| CC(=O)N[C@H](Cc1ccc2ccccc2c1)C(=O)N[C@H](Cc1ccc(Cl)cc1)C(=O)N[C@H](Cc1ccccn1)C(=O)N[C@H](C)C(=O)N[C@@H](CCCCNNC(=O)c1cccnc1)C(=O)N1CCC[C@H]1C(=O)N[C@H](C)C(N)=O | 14 nM |
| CC(=O)N[C@@H](Cc1ccc2ccccc2c1)C(=O)N[C@H](Cc1ccc(Cl)cc1)C(=O)N[C@H](Cc1ccccn1)C(=O)N[C@H](CCCCN)C(=O)N1CCC[C@@H]1C(=O)N[C@@H](C)C(N)=O | 550 nM |
| CC(=O)N[C@H](Cc1ccc2ccccc2c1)C(=O)N[C@H](Cc1ccccc1)C(=O)N[C@H](Cc1ccccc1)C(=O)NCC(=O)N[C@@H](CCCN=C(N)N)C(=O)N1CCC[C@H]1C(=O)N[C@H](C)C(N)=O | 28 nM |
| CC(=O)N[C@H](Cc1ccc2ccccc2c1)C(=O)N[C@H](Cc1ccc(Cl)cc1)C(=O)N[C@H](Cc1ccccn1)C(=O)N[C@H](C)C(=O)N[C@@H](CCCNC(=N)N)C(=O)N1CCC[C@H]1C(=O)N[C@H](C)C(N)=O | 17 nM |
| CC(=O)N[C@H](Cc1ccc2ccccc2c1)C(=O)N[C@H](Cc1ccc(Cl)cc1)C(=O)N[C@H](Cc1ccccn1)C(=O)N[C@H](CCCN=C(N)N)C(=O)N[C@@H](CCCNC(N)=O)C(=O)N1CCC[C@H]1C(=O)N[C@H](C)C(N)=O | 72 nM |
| CC(=O)N[C@H](Cc1ccc2ccccc2c1)C(=O)N[C@H](Cc1ccc(Cl)cc1)C(=O)N[C@H](Cc1ccccn1)C(=O)N[C@@H](C)C(=O)N[C@@H](CCCNC(=N)N)C(=O)N1CCC[C@H]1C(=O)N[C@H](C)C(N)=O | 28 nM |
| CC(=O)N[C@H](Cc1ccc2ccccc2c1)C(=O)N[C@H](Cc1ccc(Cl)cc1)C(=O)N[C@H](Cc1ccccn1)C(=O)NCC(=O)N[C@H](CCCNC(=N)N)C(=O)N1CCC[C@H]1C(=O)N[C@H](C)C(N)=O | 16 nM |
| CC(=O)N[C@@H](Cc1ccc2ccccc2c1)C(=O)N[C@H](Cc1ccc(Cl)cc1)C(=O)N[C@H](Cc1ccccn1)C(=O)N[C@@H](Cc1ccc(O)cc1)C(=O)N[C@H](CCCN=C(N)N)C(=O)N1CCC[C@@H]1C(=O)N[C@@H](C)C(N)=O | 25 nM |
| CC(=O)N[C@H](Cc1ccccc1)C(=O)N[C@H](Cc1ccccc1)C(=O)N[C@H](Cc1ccccc1)C(=O)NCC(=O)N[C@@H](CCCNC(=N)N)C(=O)N1CCC[C@H]1C(=O)N[C@H](C)C(N)=O | 230 nM |
| CC(=O)N[C@H](Cc1ccc2ccccc2c1)C(=O)N[C@H](Cc1ccc(Cl)cc1)C(=O)N[C@H](Cc1ccccn1)C(=O)Nc1ccccc1C(=O)N[C@@H](CCCNC(=N)N)C(=O)N1CCC[C@H]1C(=O)N[C@H](C)C(N)=O | 140 nM |
| CC(=O)N[C@H](Cc1ccc2ccccc2c1)C(=O)N[C@H](Cc1ccc(Cl)cc1)C(=O)N[C@H](Cc1ccccn1)C(=O)N[C@H](C)C(=O)N1CCC[C@H]1C(=O)N[C@H](C)C(N)=O | 1500 nM |
| CC(=O)N[C@H](Cc1ccc2ccccc2c1)C(=O)N[C@H](Cc1ccc(Cl)cc1)C(=O)N[C@H](Cc1ccccn1)C(=O)N[C@@H](CC(C)C)C(=O)N[C@@H](CCCN=C(N)N)C(=O)N1CCC[C@H]1C(=O)N[C@H](C)C(N)=O | 81 nM |
| CC(=O)N[C@H](Cc1ccc2ccccc2c1)C(=O)N[C@H](Cc1ccc(Cl)cc1)C(=O)N[C@H](Cc1ccccn1)C(=O)NCCC(=O)N[C@@H](CCCNC(=N)N)C(=O)N1CCC[C@H]1C(=O)N[C@H](C)C(N)=O | 38 nM |
| CC(=O)N[C@H](Cc1ccc2ccccc2c1)C(=O)N[C@H](Cc1ccc(Cl)cc1)C(=O)N[C@H](Cc1ccccn1)C(=O)N[C@H](C)C(=O)N[C@@H](CCCCN)C(=O)N1CCC[C@H]1C(=O)N[C@H](C)C(N)=O | 20 nM |
| CC(=O)N[C@H](Cc1ccc2ccccc2c1)C(=O)N[C@H](Cc1ccc(Cl)cc1)C(=O)N[C@H](Cc1ccccn1)C(=O)N[C@@H](CCCN=C(N)N)C(=O)N1CCC[C@H]1C(=O)N[C@H](C)C(N)=O | 130 nM |
| CC(=O)N[C@H](Cc1ccc2ccccc2c1)C(=O)N[C@H](Cc1ccc(Cl)cc1)C(=O)N[C@H](Cc1ccccn1)C(=O)N[C@H](CC(C)C)C(=O)N[C@@H](CCCNC(=N)N)C(=O)N1CCC[C@H]1C(=O)N[C@H](C)C(N)=O | 74 nM |
| CC(=O)N[C@H](Cc1ccc2ccccc2c1)C(=O)N[C@H](Cc1ccc(Cl)cc1)C(=O)N[C@H](Cc1ccccn1)C(=O)N(C)CC(=O)N[C@@H](CCCNC(=N)N)C(=O)N1CCC[C@H]1C(=O)N[C@H](C)C(N)=O | 31 nM |
| CC(=O)N[C@H](Cc1cccc2ccccc12)C(=O)N[C@H](Cc1ccccc1)C(=O)N[C@H](Cc1ccccc1)C(=O)NCC(=O)N[C@@H](CCCNC(=N)N)C(=O)N1CCC[C@H]1C(=O)N[C@H](C)C(N)=O | 370 nM |
| CCCC[C@H](NC(=O)[C@@H](C)NC(=O)[C@@H](Cc1ccccn1)NC(=O)[C@@H](Cc1ccc(Cl)cc1)NC(=O)[C@@H](Cc1ccc2ccccc2c1)NC(C)=O)C(=O)N1CCC[C@H]1C(=O)N[C@H](C)C(N)=O | 88 nM |
| CC(=O)N[C@H](Cc1ccc2ccccc2c1)C(=O)N[C@H](Cc1ccc(Cl)cc1)C(=O)N[C@H](Cc1cccnc1)C(=O)N1CCC[C@H]1C(=O)N[C@@H](CCCN=C(N)N)C(=O)N1CCC[C@H]1C(=O)N[C@H](C)C(N)=O | 110 nM |
